From patent US7091347B2, “Bicyclic pyridine and pyrimidine p38 kinase inhibitors” (Roche Palo Alto LLC, priority 2002, dated 2006)
Where a name gives a salt, the structure may show the parent alone.

How the values were obtained:
p38 MAP kinase = target: T1, p38 MAP kinase (UniProt Q16539); test: Inhibition of p-38 (MAP) kinase in vitro assay (transfer of γ-33P from ATP to Myelin Basic Protein); format: biochemical; conditions: phosphorylated recombinant p38 MAP kinase, MBP substrate, γ-33P-ATP, 30° C.
T1 construct: fused on or other part: A His tag is implied by purification on a nickel column
Experimental: The p-38 MAP kinase inhibitory activity of compounds of this invention in vitro was determined by measuring the transfer of the y-phosphate from γ-^33P-ATP by p-38 kinase to Myelin Basic Protein (MBP), using the a minor modification of the method described in Ahn, N. G.; et al. J. of Biol. Chem. Vol. 266(7), 4220–4227, (1991)
The phosphorylated form of the recombinant p38 MAP kinase was expressed with SEK-1 and MEKK in E. Coli (see, Khokhlatchev, A. et al. J. of Biol. Chem. Vol. 272(17), 11057–11062, (1997) and then purified by affinity chromatography using a Nickel column.
The phosphorylated p38 MAP kinase was diluted in kinase buffer (20 mM 3-(N-morpholino)propanesulfonic acid, pH 7.2, 25 mM β-glycerol phosphate, 5 mM ethylene glycol-bis(beta-aminoethyl ether)-N,N,N′,N′-tetraacetic acid, 1 mM sodium vanadate, 1 mM dithiothreitol, 40 mM magnesium chloride). Test compound dissolved in DMSO or only DMSO (control) was added and the samples were incubated for 10 min. at 30° C. The kinase reaction was initiated by the addition of a substrate cocktail containing MBP and γ-^33P-ATP. After incubating for an additional 20 min. at 30° C., the reaction was terminated by adding 0.75% phosphoric acid. The phosphorylated MBP was then separated from the residual γ-^33P-ATP using a phosphocellulose membrane (Millipore, Bedfrod, Mass.) and quantitated using a scintillation counter (Packard, Meriden, Conn.).
The p-38 inhibitory activities (expressed as IC50, the concentration causing 50% inhibition of the p-38 enzyme being analyzed) of the compounds listed in Table 1 in the specification are between 0.01 μM and 10 μM.

SMILES	melting point [°C]	IC50 (p38 MAP kinase) [nM]
Fc1ccccc1Cc1cc2cnc(NC3CCOCC3)nc2s1 (as salt: hydrochloride) [Compound 25, 2-(tetrahydropyran-4-ylamino)-6-[(2-fluorophenyl)methyl]thieno[2,3-d]pyrimidine]	217 to 219	
O=C(c1ccccc1)c1cc2cnc(N[C@H]3CC[C@H](O)CC3)nc2s1 [Compound 1]	102.6 to 103.8	104
Cl.O=C(c1ccccc1)c1cc2cnc(NC3CCOCC3)nc2s1 [Compound 3]	219.5 to 220.5	221
O=C(c1cc2cnc(NC3CCOCC3)nc2s1)c1ccccc1F [Compound 9, 2-(tetrahydropyran-4-ylamino)-6-(2-fluorobenzoyl)thieno[2,3-d]pyrimidine]	195.2 to 195.5	
CS(=O)(=O)N1CCC(Nc2ncc3cc(C(O)c4ccccc4)sc3n2)CC1.Cl (centres unmarked) [Compound 23]	152.2 to 162.1	128
c1ccc(Cc2cc3cnc(NC4CCCC4)nc3o2)cc1 [Compound 30, 2-(cyclopentylamino)-6-benzyl-furano[2,3-d]pyrimidine]		744
Cn1c(Cc2ccccc2)cc2cnc(NC3CCCC3)nc21 [Compound 33, 2-(cyclopentylamino)-6-benzyl-7-methyl-pyrrolo[2,3-d]pyrimidine]		135
Fc1ccc(Sc2cc3cnc(NC4CCOCC4)nc3s2)c(F)c1 [Compound 41, [6-(2,4-Difluorophenylsulfanyl)thieno[2,3-d]pyrimidin-2-yl]-(tetrahydropyran-4-yl)-amine]		226
